Patent US20070071778A1 (ISP INVESTMENTS INC., priority 2005, published 2007)

Tested on: mixed fungal inoculum (Aspergillus niger, Penicillium funiculosum and Stachybotrys chartarum)
Assay: Fungicidal efficacy on water saturated gypsum boards
Type: cell-based
Parameters: key: Presence (+); Absence (−) of Fungal Growth
Details: gypsum board, 1,000 ppm triclosan, 28° C., 80% RH, 30-45 days
Experimental: The compositions of Example 9 were diluted to 1,000 ppm of triclosan. Then both sides of a gypsum board (cream and grey) sample (2×2×½ in.) were brush coated with each formulation and allowed to dry for 24 hours. The Controls were gypsum boards treated with only water or with only 1,000 ppm of triclosan in dimethyl sulfamide. The treated gypsum boards were then placed on a Petri dish and water was added to saturate the board. The water saturated gypsum boards were then inoculated with a mixed fungal inoculum (Aspergillus niger, Penicillium funiculosum and Stachybotrys chartarum) containing ca. 10^5 spores/ml. The samples were incubated at 28° C., 80% RH for 30-45 days and rated for the presence or absence of fungal growth thereon. Samples showing no growth were re-inoculated and incubated for another 30-45 days.

Oc1cc(Cl)ccc1Oc1ccc(Cl)cc1Cl [Triclosan, triclosan]
Presence (+)/Absence (−) of Fungal Growth, Cream Side: +
Presence (+)/Absence (−) of Fungal Growth, Grey Side: +
